Laboratory results published in BindingDB's records for doi:10.1016/j.bmcl.2009.10.011 (AMRI, 2009).

Biological target: Cyclin-A1/Cyclin-A2/Cyclin-dependent kinase 2 (Homo sapiens, UniProt P24941)
Test: Inhibition of recombinant Cdk2/cyclinA

Row | IC50 [nM] | Structure (SMILES)
1 | 0.1 | Cc1csc(-c2ccc(CNc3nc(N[C@H]4CC[C@H](N)CC4)nc4c3ncn4C(C)C)s2)n1
2 | 0.9 | CC(C)n1cnc2c(NCc3ccc(-c4cccs4)nc3)nc(N[C@H]3CC[C@H](N)CC3)nc21
